Measured values reported in patent publication US20230407243A1, “GENETIC PLATFORM TO INVESTIGATE THE FUNCTIONS OF BACTERIAL DRUG EFFLUX PUMPS” (priority 2022, published 2023).
Where two headings read alike, the source gives them in different places.

Key:
Format in all cases: cell-based, Escherichia coli
EKO-35-Pore = test: MIC susceptibility profiling, porinated strain; conditions: for Fold changes of MICs: EKO-35-Pore compared to EKO-35-Pore (reference); for MIC: Escherichia coli, technical duplicate
In short: (§1)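 MIC values come from background-corrected OD600 readings (pre-incubation OD subtracted) after 18 h at 37 °C and 900 rpm in MHB II. Compounds were tested in duplicate as 2-fold dilutions. The inoculum came from 18 h LB cultures adjusted to OD600 ~1.0 and diluted 1/2000, and the pore-bearing strains were vancomycin-checked beforehand.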

ΔtolC-Pore = test: microbe, parasite or virus in culture; conditions: for MIC: Escherichia coli, 18 h, read-out: Minimum inhibitory concentration, ΔtolC-Pore; for Minimum inhibitory concentration (MIC), Pore ΔtolC: Table 10, with pore, technical duplicate
In short: as §1

wild-type (WT) K-12-Pore = test: microbe, parasite or virus in culture; conditions: Escherichia coli, technical duplicate
In short: as §1

EKO-35 araC::acrEF Pore = test: MIC susceptibility profiling, porinated efflux platform; conditions: for Fold changes of MICs: EKO-35 araC::acrEF Pore compared to EKO-35-Pore
In short: as §1

EKO-35 araC::emrAB Pore = test: as above; conditions: for Fold changes of MICs: EKO-35 araC::emrAB Pore compared to EKO-35-Pore; for MIC: Escherichia coli, EKO-35 araC::emrAB Pore, technical duplicate, read-out: Minimum inhibitory concentration
In short: as §1

EKO-35 araC::acrD Pore = test: as above; conditions: for Fold changes of MICs: EKO-35 araC::acrD Pore compared to EKO-35-Pore
In short: as §1

EKO-35 araC::acrB Pore = test: as above; conditions: EKO-35 araC::acr-B Pore compared to EKO-35-Pore
In short: as §1

[1] = system: EKO-35 araC::acrBD408A Pore; test: as above; conditions: for Fold changes of MICs: EKO-35 araC::acrBD408A Pore compared to EKO-35-Pore; for MIC: Escherichia coli, EKO-35 araC::acrBD408A Pore, technical duplicate, read-out: Minimum inhibitory concentration
In short: as §1

EKO-35 araC::mdtBC = test: MIC susceptibility profiling, efflux platform; conditions: for Fold change of MICs: EKO-35 araC::mdtBC compared to EKO-35; for MIC: Escherichia coli, Table 13B, non-porinated, technical duplicate, read-out: Minimum Inhibitory Concentration, EKO-35 araC::mdtBC
In short: (§2)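 Broth MIC in cation-adjusted Mueller-Hinton (MHB II) following twofold compound titration in duplicate. Bacteria were prepared at OD600 ~1.0 in PBS and diluted 1/2000. Endpoint OD600 after 18 h at 37 °C was corrected using the pre-incubation reading.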

EKO-35 araC::mdtEF = test: MIC susceptibility profiling, efflux platform; conditions: for Fold change of MICs: EKO-35 araC::mdtEF compared to EKO-35
In short: as §2

EKO-35 araC::emrAB = test: MIC susceptibility profiling, efflux platform; conditions: for Fold change of MICs: EKO-35 araC::emrAB compared to EKO-35; for MIC: Escherichia coli, Table 13B, non-porinated, technical duplicate, read-out: Minimum Inhibitory Concentration, EKO-35 araC::emrAB
In short: as §2

EKO-35 araC::acrEF = test: MIC susceptibility profiling, efflux platform; conditions: for Fold change of MICs: EKO-35 araC::acrEF compared to EKO-35
In short: as §2

EKO-35 araC::acrB = test: MIC susceptibility profiling, efflux platform; conditions: for Fold change of MICs: EKO-35 araC::acrB compared to EKO-35
In short: as §2

[2] = system: EKO-35 araC::mexCD (MexCD from P. aeruginosa); test: MIC susceptibility profiling, efflux platform; conditions: for Fold change of MICs: EKO-35 araC::mexCD compared to EKO-35; for MIC: Table 13B, non-porinated, technical duplicate, read-out: Minimum Inhibitory Concentration, EKO-35 araC::mexCD
In short: as §2

EKO-35 araC::acrBD408A = test: MIC susceptibility profiling, efflux platform; conditions: for Fold change of MICs: EKO-35 araC::acrBD408A compared to EKO-35; for MIC: Escherichia coli, Table 13B, non-porinated, technical duplicate, read-out: Minimum Inhibitory Concentration, EKO-35 araC::acrBD408A
In short: as §2

EKO-35 araC::macAB = test: MIC susceptibility profiling, efflux platform; conditions: for Fold change of MICs: EKO-35 araC::macAB compared to EKO-35; for MIC: Escherichia coli, Table 13B, non-porinated, technical duplicate, read-out: Minimum Inhibitory Concentration, EKO-35 araC::macAB
In short: as §2

EKO-35 araC::emrKY = test: MIC susceptibility profiling, efflux platform; conditions: for Fold change of MICs: EKO-35 araC::emrKY compared to EKO-35; for MIC: Escherichia coli, Table 13B, non-porinated, technical duplicate, read-out: Minimum Inhibitory Concentration, EKO-35 araC::emrKY
In short: as §2

EKO-35 araC::acrD = test: MIC susceptibility profiling, efflux platform; conditions: for Fold change of MICs: EKO-35 araC::acrD compared to EKO-35
In short: as §2

[3] = Table 10, with pore, read-out: Minimum inhibitory concentration (MIC), Pore EKO-35
[4] = Table 14A, porinated, read-out: Minimum inhibitory concentration, EKO-35-Pore
[5] = Table 10, with pore, read-out: Minimum inhibitory concentration (MIC), Pore K-12
[6] = Table 14A, porinated, read-out: Minimum inhibitory concentration, K-12 (WT)-Pore

Row | SMILES | Fold changes of MICs (EKO-35-Pore) [fold] | MIC (EKO-35-Pore; [3]) [µg/mL] | MIC (EKO-35-Pore; [4]) [µg/mL] | MIC (ΔtolC-Pore) [µg/mL] | Minimum inhibitory concentration (MIC), Pore ΔtolC (ΔtolC-Pore) [µg/mL] | MIC (wild-type (WT) K-12-Pore; [5]) [µg/mL] | MIC (wild-type (WT) K-12-Pore; [6]) [µg/mL] | Fold changes of MICs (EKO-35 araC::acrEF Pore) [fold] | Fold changes of MICs (EKO-35 araC::emrAB Pore) [fold] | MIC (EKO-35 araC::emrAB Pore) [µg/mL] | Fold changes of MICs (EKO-35 araC::acrD Pore) [fold] | Fold changes of MICs (EKO-35 araC::acrB Pore) [fold] | Fold changes of MICs [1] [fold] | MIC [1] [µg/mL] | Fold change of MICs (EKO-35 araC::mdtBC) [fold] | MIC (EKO-35 araC::mdtBC) [µg/mL] | Fold change of MICs (EKO-35 araC::mdtEF) [fold] | Fold change of MICs (EKO-35 araC::emrAB) [fold] | MIC (EKO-35 araC::emrAB) [µg/mL] | Fold change of MICs (EKO-35 araC::acrEF) [fold] | other results
1 | CCCCCCCCCCCCOS(=O)(=O)[O-].[Na+] [SDS, sodium dodecyl sulphate] | 1 | 31.2 | 31.2 | 15.6 | 15.625 | 1000 | 1000 | 32 | 4 | 125 | 32 | 32 | 1 | 31.2 | 2 | 62.5 | 32 | 4 | 125 | 32 | Fold change of MICs (EKO-35 araC::acrB): 32 fold; Fold change of MICs [2]: 32 fold; MIC [2]: 1000 µg/mL; Fold change of MICs (EKO-35 araC::acrBD408A): 2 fold; MIC (EKO-35 araC::acrBD408A): 62.5 µg/mL; Fold change of MICs (EKO-35 araC::macAB): 1 fold; MIC (EKO-35 araC::macAB): 31.2 µg/mL; Fold change of MICs (EKO-35 araC::emrKY): 2 fold; MIC (EKO-35 araC::emrKY): 62.5 µg/mL; efflux pump-mediated resistance vs EKO-35 (EKO-35 araC::acrD; AcrD): confirmed; Fold change of MICs (EKO-35 araC::acrD): 32 fold
2 | CC(=O)O[C@H]1C[C@@]2(C)[C@@H](C[C@@H](O)[C@H]3[C@@]4(C)CC[C@@H](O)[C@@H](C)[C@@H]4CC[C@@]32C)/C1=C(\CCC=C(C)C)C(=O)O [fusidic acid] | 1 | 0.391 | 0.391 | 0.391 | 0.391 | 100 | 100 | 32 | 4 | 1.56 | 32 | 256 | 1 | 0.391 | 2 | 6.25 | 16 | 2 | 6.25 | 16 | MIC (EKO-35 araC::acrEF Pore; Escherichia coli, Table 14A, porinated, technical duplicate, read-out: Minimum inhibitory concentration, EKO-35 araC::acrEF Pore): 12.5 µg/mL; efflux pump-mediated resistance vs EKO-35-Pore (EKO-35 araC::emrAB Pore; EmrAB, porinated strain): associated with resistance; MIC (EKO-35 araC::acrD Pore; Escherichia coli, Table 14A, porinated, technical duplicate, read-out: Minimum inhibitory concentration, EKO-35 araC::acrD Pore): 12.5 µg/mL; MIC (EKO-35 araC::mdtEF; Escherichia coli, Table 13A, non-porinated, technical duplicate, read-out: Minimum Inhibitory Concentration, EKO-35 araC::mdtEF): 50 µg/mL; MIC (EKO-35 araC::acrEF; Escherichia coli, Table 13A, non-porinated, technical duplicate, read-out: Minimum Inhibitory Concentration, EKO-35 araC::acrEF): 50 µg/mL; Fold change of MICs (EKO-35 araC::acrB): 128 fold; MIC (EKO-35 araC::acrB; Escherichia coli, Table 13A, non-porinated, technical duplicate, read-out: Minimum Inhibitory Concentration, EKO-35 araC::acrB): 400 µg/mL; Fold change of MICs [2]: 4 fold; MIC [2]: 12.5 µg/mL; Fold change of MICs (EKO-35 araC::acrBD408A): 1 fold; MIC (EKO-35 araC::acrBD408A): 3.12 µg/mL; Fold change of MICs (EKO-35 araC::macAB): 1 fold; MIC (EKO-35 araC::macAB): 3.12 µg/mL; Fold change of MICs (EKO-35 araC::emrKY): 1 fold; MIC (EKO-35 araC::emrKY): 3.12 µg/mL; Fold change of MICs (EKO-35 araC::acrD): 32 fold
